Here are results for seven compounds from ChEMBL document CHEMBL4350957, “Use of the 4-Hydroxytriazole Moiety as a Bioisosteric Tool in the Development of Ionotropic Glutamate Receptor Ligands” (J Med Chem, 2019).

SMILES strings stand for the structures. Active and inactive are the calls of the source. No cut-off for these calls is given here.

For assay [1], the target named is Glutamate receptor 4 (Rattus norvegicus, UniProt P19493). In words: biochemical.
Assay [2] has as its target Glutamate receptor 2 (Rattus norvegicus, UniProt P19491). As to the kind of experiment: biochemical.
For assay [3], the target named is Glutamate receptor 3 (Rattus norvegicus, UniProt P19492). In words: biochemical.
For assay [4], the target named is T1, Glutamate receptor 3 (Homo sapiens, UniProt P42263). In words: Agonist activity at GluA3 receptor (unknown origin) expressed in HEK293 cells assessed induction of S-glutamate-induced calcium flux at 300 uM measured after 90 secs in presence of cyclothiazide by Fluo4-AM dye-based fluorescence assay relative to S-glutamate. The class given is cell-based. On the technique in general: Calcium assays in cells follow changes in intracellular calcium, usually with a dye or a luminescent sensor.

In assay [5] the target is T2, Glutamate receptor 1 (Homo sapiens, UniProt P42261). In words: Agonist activity at GluA1 receptor (unknown origin) expressed in HEK293 cells assessed induction of S-glutamate-induced calcium flux at 300 uM measured after 90 secs in presence of cyclothiazide by Fluo4-AM dye-based fluorescence assay relative to S-glutamate. It is filed as cell-based.
In assay [6] the target is T3, Glutamate receptor 4 (Homo sapiens, UniProt P48058).
For assay [7], the target named is T4, Glutamate NMDA receptor; Grin1/Grin2a (Rattus norvegicus) (UniProt P35439+Q00959). As to the kind of experiment: Agonist activity at recombinant rat GluN1a/GluN2A expressed in Xenopus laevis oocytes at 300 uM at -40 mV holding potential in presence of glycine by two-electrode voltage clamp electrophysiology method relative to glycine. The class given is cell-based. On the technique in general: Two-electrode voltage clamp holds a large cell at a set potential and records current.

Assay [8] has as its target T4, Glutamate NMDA receptor; Grin1/Grin2a (Rattus norvegicus). As to the kind of experiment: Agonist activity at recombinant rat GluN1a/GluN2A expressed in Xenopus laevis oocytes at 100 uM at -40 mV holding potential by two-electrode voltage clamp electrophysiology method. The class given is cell-based.
Assay [9] deals with T5, Glutamate NMDA receptor; Grin1/Grin2b (Rattus norvegicus) (UniProt P35439+Q00960). As to the kind of experiment: Agonist activity at recombinant rat GluN1a/GluN2B expressed in Xenopus laevis oocytes at 100 uM at -40 mV holding potential by two-electrode voltage clamp electrophysiology method. The class given is cell-based.
Assay [10] deals with T6, Ionotropic glutamate receptor NMDA 1/2D (Rattus norvegicus) (UniProt P35439+Q62645). In words: Agonist activity at recombinant rat GluN1a/GluN2D expressed in Xenopus laevis oocytes at 100 uM at -40 mV holding potential by two-electrode voltage clamp electrophysiology method. It is filed as cell-based.
Assay [11] concerns the target Glutamate receptor ionotropic, AMPA (Rattus norvegicus, UniProt P19490+P19491+P19492+P19493).
For assay [12], the target named is T6, Ionotropic glutamate receptor NMDA 1/2D (Rattus norvegicus). As to the kind of experiment: Agonist activity at recombinant rat GluN1a/GluN2D expressed in Xenopus laevis oocytes at -40 mV holding potential in presence of glutamate by two-electrode voltage clamp electrophysiology method relative to control. It is filed as cell-based.
Assay [13] deals with T7, Ionotropic glutamate receptor NMDA 1/2D (Rattus norvegicus, UniProt P35439+Q62645).
Assay [14] has as its target T8, Glutamate NMDA receptor; Grin1/Grin2c (Rattus norvegicus) (UniProt P35439+Q00961). In words: Agonist activity at recombinant rat GluN1a/GluN2C expressed in Xenopus laevis oocytes at 100 uM at -40 mV holding potential by two-electrode voltage clamp electrophysiology method. The class given is cell-based.
Assay [15] addresses T5, Glutamate NMDA receptor; Grin1/Grin2b (Rattus norvegicus). In words: Agonist activity at recombinant rat GluN1a/GluN2B expressed in Xenopus laevis oocytes at 300 uM at -40 mV holding potential in presence of glutamate by two-electrode voltage clamp electrophysiology method relative to control. The class given is cell-based.
Assay [16] addresses T6, Ionotropic glutamate receptor NMDA 1/2D (Rattus norvegicus). As to the kind of experiment: Agonist activity at recombinant rat GluN1a/GluN2D expressed in Xenopus laevis oocytes at -40 mV holding potential in presence of glycine by two-electrode voltage clamp electrophysiology method relative to glycine. It is filed as cell-based.
Assay [17] concerns the target T7, Ionotropic glutamate receptor NMDA 1/2D. This is another data set of the same source.
Assay [18] addresses T4, Glutamate NMDA receptor; Grin1/Grin2a (Rattus norvegicus). In words: Agonist activity at recombinant rat GluN1a/GluN2A expressed in Xenopus laevis oocytes at 300 uM at -40 mV holding potential in presence of glutamate by two-electrode voltage clamp electrophysiology method relative to control. It is filed as cell-based.
Assay [19] has as its target T8, Glutamate NMDA receptor; Grin1/Grin2c (Rattus norvegicus). In words: Agonist activity at recombinant rat GluN1a/GluN2C expressed in Xenopus laevis oocytes at -40 mV holding potential in presence of glutamate by two-electrode voltage clamp electrophysiology method relative to control. It is filed as cell-based.
In assay [20] the target is T2, Glutamate receptor 1.
Assay [21] has as its target Glutamate receptor 1 (Rattus norvegicus, UniProt P19490). In words: biochemical.
The target of assay [22] is Glutamate receptor 2 (Homo sapiens, UniProt P42262).
The target of assay [23] is T1, Glutamate receptor 3.
Assay [24] concerns the target T3, Glutamate receptor 4. As to the kind of experiment: Agonist activity at GluA4 receptor (unknown origin) expressed in HEK293 cells assessed induction of S-glutamate-induced calcium flux at 1000 uM measured after 90 secs in presence of cyclothiazide by Fluo4-AM dye-based fluorescence assay relative to S-glutamate. It is filed as cell-based.

Glutamate receptor 2 (Rattus norvegicus, UniProt P19491), sequence (P19491 whole entry): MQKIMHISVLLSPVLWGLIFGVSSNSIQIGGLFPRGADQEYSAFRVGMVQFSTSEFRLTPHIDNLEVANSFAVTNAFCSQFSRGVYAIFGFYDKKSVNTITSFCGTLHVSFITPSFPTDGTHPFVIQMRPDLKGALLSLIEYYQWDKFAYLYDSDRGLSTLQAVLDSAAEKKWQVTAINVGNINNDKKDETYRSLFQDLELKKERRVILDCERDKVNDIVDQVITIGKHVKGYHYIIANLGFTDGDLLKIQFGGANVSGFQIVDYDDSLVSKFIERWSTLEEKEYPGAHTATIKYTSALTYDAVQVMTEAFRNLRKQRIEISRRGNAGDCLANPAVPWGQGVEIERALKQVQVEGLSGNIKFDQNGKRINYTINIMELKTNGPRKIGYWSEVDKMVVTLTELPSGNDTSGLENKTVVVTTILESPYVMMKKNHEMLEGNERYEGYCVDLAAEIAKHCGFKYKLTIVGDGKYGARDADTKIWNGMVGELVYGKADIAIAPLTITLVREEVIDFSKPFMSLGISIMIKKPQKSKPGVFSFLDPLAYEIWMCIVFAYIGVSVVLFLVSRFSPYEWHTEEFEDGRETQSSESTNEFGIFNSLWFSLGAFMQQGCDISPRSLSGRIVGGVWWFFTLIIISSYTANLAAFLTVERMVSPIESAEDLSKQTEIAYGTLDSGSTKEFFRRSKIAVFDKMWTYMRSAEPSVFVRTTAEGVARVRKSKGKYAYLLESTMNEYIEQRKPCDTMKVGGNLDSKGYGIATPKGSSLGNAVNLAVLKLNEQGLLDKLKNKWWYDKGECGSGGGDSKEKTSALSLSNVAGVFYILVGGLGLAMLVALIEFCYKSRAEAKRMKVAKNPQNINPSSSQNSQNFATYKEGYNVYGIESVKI
T2 sequence (P42261 whole entry): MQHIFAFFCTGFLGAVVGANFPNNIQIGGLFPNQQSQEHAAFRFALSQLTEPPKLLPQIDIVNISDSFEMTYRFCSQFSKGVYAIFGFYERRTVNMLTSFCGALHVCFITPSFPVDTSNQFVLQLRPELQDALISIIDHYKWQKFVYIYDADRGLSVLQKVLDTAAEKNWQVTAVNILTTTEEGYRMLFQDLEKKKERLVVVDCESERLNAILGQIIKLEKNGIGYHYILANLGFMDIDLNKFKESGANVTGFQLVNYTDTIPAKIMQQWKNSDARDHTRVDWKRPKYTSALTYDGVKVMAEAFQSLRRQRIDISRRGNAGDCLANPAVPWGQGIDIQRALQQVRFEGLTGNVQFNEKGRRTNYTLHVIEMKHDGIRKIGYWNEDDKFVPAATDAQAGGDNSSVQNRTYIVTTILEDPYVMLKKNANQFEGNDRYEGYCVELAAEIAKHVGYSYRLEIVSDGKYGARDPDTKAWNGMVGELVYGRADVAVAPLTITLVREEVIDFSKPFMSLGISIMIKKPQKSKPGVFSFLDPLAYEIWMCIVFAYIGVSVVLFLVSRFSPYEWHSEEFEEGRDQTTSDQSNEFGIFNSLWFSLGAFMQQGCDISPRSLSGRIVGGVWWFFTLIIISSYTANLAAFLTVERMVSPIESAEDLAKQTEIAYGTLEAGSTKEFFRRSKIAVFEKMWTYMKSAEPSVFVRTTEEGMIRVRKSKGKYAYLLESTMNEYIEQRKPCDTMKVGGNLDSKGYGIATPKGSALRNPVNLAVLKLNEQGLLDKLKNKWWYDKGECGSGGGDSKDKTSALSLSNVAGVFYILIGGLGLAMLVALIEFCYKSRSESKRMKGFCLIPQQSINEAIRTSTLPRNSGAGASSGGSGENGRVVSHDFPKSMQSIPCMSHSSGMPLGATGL
Glutamate receptor 3 (Rattus norvegicus, UniProt P19492), sequence (P19492 whole entry): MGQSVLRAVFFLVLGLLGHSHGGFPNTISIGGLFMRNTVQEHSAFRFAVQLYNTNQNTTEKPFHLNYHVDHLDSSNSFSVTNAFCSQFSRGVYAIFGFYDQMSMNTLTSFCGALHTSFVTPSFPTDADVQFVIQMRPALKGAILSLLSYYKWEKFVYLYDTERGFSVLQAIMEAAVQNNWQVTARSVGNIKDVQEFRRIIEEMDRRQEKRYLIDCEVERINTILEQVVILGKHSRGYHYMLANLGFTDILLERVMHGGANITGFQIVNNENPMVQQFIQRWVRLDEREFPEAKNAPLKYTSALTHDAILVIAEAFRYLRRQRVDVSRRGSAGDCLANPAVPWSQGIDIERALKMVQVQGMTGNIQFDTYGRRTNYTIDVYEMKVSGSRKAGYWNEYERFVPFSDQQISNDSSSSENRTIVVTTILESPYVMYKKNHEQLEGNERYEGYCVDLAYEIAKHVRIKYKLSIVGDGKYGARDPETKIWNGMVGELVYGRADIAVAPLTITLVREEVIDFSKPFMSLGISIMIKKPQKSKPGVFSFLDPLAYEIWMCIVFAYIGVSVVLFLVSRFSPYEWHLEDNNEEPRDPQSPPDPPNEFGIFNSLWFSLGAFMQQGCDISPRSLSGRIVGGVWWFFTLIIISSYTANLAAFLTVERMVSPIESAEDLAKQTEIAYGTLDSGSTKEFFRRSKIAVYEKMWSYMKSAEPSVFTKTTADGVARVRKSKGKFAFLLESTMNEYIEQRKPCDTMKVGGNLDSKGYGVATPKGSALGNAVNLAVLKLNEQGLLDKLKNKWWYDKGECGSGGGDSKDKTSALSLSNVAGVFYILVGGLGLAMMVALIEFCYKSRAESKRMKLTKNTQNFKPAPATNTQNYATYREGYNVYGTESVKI
T3 sequence (P48058 whole entry): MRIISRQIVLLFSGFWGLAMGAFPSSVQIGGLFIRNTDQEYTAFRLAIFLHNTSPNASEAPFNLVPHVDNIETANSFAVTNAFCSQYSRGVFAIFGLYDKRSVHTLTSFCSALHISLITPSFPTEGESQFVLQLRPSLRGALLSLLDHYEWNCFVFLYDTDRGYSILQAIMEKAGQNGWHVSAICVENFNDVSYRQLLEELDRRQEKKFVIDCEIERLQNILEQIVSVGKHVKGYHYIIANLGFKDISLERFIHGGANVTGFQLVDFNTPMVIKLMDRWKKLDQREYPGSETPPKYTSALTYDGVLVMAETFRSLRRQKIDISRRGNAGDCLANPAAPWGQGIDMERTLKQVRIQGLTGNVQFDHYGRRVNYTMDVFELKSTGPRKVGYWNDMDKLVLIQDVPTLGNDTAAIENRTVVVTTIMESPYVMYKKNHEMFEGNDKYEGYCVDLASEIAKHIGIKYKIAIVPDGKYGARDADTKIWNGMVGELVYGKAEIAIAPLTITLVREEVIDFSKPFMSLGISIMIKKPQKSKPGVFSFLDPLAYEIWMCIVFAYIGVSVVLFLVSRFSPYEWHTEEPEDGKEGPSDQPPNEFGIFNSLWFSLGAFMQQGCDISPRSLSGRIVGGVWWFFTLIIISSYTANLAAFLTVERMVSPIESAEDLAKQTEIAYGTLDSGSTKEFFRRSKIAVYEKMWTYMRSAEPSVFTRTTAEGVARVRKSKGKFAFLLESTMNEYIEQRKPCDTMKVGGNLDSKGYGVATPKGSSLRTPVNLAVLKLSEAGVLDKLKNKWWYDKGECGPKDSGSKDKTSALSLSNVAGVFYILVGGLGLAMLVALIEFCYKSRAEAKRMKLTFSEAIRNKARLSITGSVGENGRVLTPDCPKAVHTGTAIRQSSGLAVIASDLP
Glutamate receptor 4 (Rattus norvegicus, UniProt P19493), sequence (P19493 whole entry): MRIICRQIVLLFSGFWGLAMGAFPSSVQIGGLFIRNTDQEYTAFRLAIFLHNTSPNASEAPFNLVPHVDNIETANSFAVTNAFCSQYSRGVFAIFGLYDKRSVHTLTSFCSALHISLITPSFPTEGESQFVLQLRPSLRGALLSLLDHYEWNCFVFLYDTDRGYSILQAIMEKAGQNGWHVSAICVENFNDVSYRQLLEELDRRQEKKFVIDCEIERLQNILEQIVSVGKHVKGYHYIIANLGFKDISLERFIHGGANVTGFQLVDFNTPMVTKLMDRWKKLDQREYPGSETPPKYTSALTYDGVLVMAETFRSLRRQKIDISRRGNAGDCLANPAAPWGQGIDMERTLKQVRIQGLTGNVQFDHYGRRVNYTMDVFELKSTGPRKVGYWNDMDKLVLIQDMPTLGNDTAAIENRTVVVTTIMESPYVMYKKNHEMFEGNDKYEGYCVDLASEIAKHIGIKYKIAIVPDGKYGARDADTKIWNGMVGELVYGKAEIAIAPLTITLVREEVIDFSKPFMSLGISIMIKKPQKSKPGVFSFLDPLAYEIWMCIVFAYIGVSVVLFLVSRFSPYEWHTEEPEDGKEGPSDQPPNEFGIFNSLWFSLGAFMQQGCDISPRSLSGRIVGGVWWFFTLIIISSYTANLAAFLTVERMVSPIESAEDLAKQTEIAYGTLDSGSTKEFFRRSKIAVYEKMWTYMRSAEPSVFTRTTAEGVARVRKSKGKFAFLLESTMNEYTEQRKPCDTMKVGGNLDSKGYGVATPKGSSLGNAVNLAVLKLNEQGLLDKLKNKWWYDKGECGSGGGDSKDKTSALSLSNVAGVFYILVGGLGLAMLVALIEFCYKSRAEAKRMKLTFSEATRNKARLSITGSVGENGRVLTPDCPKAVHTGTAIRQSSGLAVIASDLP
Glutamate receptor 2 (Homo sapiens, UniProt P42262), sequence (P42262 whole entry): as the sequence (P19491 whole entry) above, with T191M, A291T, G764R, P852A counted along it

A word on the Ki: it is the dissociation constant of the complex between target and ligand, obtained from inhibition or displacement. High values mean a looser hold on the target, low ones a stronger hold on the target. Turning to `Cn1nnc(-c2onc(O)c2CC(N)C(=O)O)n1` (centres undefined), the values for the Ki at Glutamate receptor 4 [1], at Glutamate receptor 2 [2] and on Glutamate receptor 3 [3] were 0.0027 µM, 0.0039 µM and 0.0022 µM, respectively.
Broadly, the EC50 is the concentration at which the effect is half-maximal. Low readings indicate a more potent agent, high ones a less potent agent. Consider `Cn1nnc(O)c1CC(N)C(=O)O` (racemic), for which the %max on Glutamate receptor 3 [4] and at Glutamate receptor 1 [5] was greater than 5% in each case. For the same compound, the Ki on Glutamate receptor 2 [2] came out at 1.87 µM. For the same compound, the EC50 on Glutamate receptor 4 [6] is 56.2 µM.
The IC50 is the point on the concentration scale where inhibition reaches its midpoint. Read a high IC50 as weaker potency in that assay. For the compound `Cn1nc(O)c(C(N)C(=O)O)n1` (racemic), in assay [7], the Imax entry was “inactive”. In addition, in [8], the outcome was inactive. The result in assay [9], in assay [10] and in [14] was Active. The same compound displayed an IC50 in assay [11] greater than 100 µM. Moreover, the Imax in assay [12] came out at 98%; in assay [15] it was 52%; in assay [16] it was 58%; in assay [18], 38%; in assay [19], 107%. For the same compound, the EC50 in assay [13] came out at 58 µM; in assay [17], 35 µM.
For `CCn1nc(O)c(CC(N)C(=O)O)n1` (racemic), the concentration for a half-maximal effect (EC50) on Glutamate receptor 1 [20], on Glutamate receptor 2 [22], at Glutamate receptor 4 [6] and at Glutamate receptor 3 [23] was greater than 1000 µM throughout. In addition, the Ki was greater than 100 µM on Glutamate receptor 4 [1]; greater than 100 µM at Glutamate receptor 1 [21]; greater than 100 µM on Glutamate receptor 2 [2]; greater than 100 µM on Glutamate NMDA receptor; 100 µM at Glutamate receptor 3 [3]. For the same compound, the IC50 in assay [11] is greater than 100 µM.
At Glutamate receptor 1 [20], `CCCn1nc(O)c(CC(N)C(=O)O)n1` (racemic) returned an EC50 greater than 1000 µM. Besides, the Ki on Glutamate receptor 4 [1], at Glutamate receptor 1 [21], on Glutamate receptor 2 [2], on Glutamate NMDA receptor and at Glutamate receptor 3 [3] was greater than 100 µM throughout. The IC50 in assay [11] was greater than 100 µM. On Glutamate receptor 4 [24], the %max was greater than 5%.
Regarding `CCCn1nnc(O)c1CC(N)C(=O)O` (racemic), the %max on Glutamate receptor 3 [4] was greater than 5%. In addition, the Ki was 100 µM at Glutamate receptor 4 [1], 3.25 µM on Glutamate receptor 2 [2] and greater than 100 µM at Glutamate NMDA receptor. Also, the concentration for a half-maximal effect (EC50) on Glutamate receptor 4 [6] worked out at 51 µM.
Take `CN[C@H](CC(=O)O)C(=O)O` [N-METHYL-D-ASPARTIC ACID (NMDA)]: the IC50 in [11] was greater than 100 µM.
